From patent publication US12606852B2, “Conversion of lignin-derived monomers to muconate by engineered pseudomonas” (Alliance for Sustainable Energy, LLC, priority 2021, dated 2026)
Several values for one entry are separate records, joined by “and”; a condition that tells them apart may be missing. Equal entries are not always repeated. Where two headings read alike, the source gives them in different places.

What was measured:
[1] = target: T1, Paenibacillus sp. JJ-1b PraI (para-hydroxybenzoate-3-hydroxylase, PHBH), BAH79107, tagless, praI_EC gene SEQ ID NO: 3 (Paenibacillus sp., UniProt C4TP09); test: Steady-state kinetic analysis of PraI (hydroxylation of 4-hydroxybenzoate); format: biochemical; settings: for kcat (NAD(P)H): air-saturated, 200 μM 4-hydroxybenzoate, pH 8, 25° C.
T1 construct: His-tagged form only for crystallography
T1 sequence (C4TP09 2-394): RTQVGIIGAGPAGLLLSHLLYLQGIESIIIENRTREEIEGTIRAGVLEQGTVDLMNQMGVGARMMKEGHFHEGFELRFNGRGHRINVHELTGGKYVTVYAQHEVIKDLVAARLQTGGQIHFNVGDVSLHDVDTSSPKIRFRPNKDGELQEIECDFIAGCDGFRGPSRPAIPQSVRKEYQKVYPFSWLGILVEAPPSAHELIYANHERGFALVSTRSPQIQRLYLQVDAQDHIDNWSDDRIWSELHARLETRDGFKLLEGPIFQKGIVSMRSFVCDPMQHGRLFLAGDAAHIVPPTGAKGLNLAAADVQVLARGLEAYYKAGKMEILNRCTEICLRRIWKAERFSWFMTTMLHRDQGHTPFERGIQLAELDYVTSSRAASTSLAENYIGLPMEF

[2] = target: Pseudomonas putida KT2440 PobA (para-hydroxybenzoate-3-hydroxylase, PHBH), native, PP_3537, tagless, pobA_EC gene SEQ ID NO: 1 (Pseudomonas putida, UniProt Q88H28); test: Steady-state kinetic analysis of PobA (hydroxylation of 4-hydroxybenzoate); format: biochemical; settings: for kcat (NAD(P)H): NADPH varied, air-saturated, 200 μM 4-hydroxybenzoate, pH 8, 25° C.
Sequence of Pseudomonas putida KT2440 PobA (para-hydroxybenzoate-3-hydroxylase, PHBH), native, PP_3537, tagless, pobA_EC gene SEQ ID NO: 1 (Q88H28 1-395): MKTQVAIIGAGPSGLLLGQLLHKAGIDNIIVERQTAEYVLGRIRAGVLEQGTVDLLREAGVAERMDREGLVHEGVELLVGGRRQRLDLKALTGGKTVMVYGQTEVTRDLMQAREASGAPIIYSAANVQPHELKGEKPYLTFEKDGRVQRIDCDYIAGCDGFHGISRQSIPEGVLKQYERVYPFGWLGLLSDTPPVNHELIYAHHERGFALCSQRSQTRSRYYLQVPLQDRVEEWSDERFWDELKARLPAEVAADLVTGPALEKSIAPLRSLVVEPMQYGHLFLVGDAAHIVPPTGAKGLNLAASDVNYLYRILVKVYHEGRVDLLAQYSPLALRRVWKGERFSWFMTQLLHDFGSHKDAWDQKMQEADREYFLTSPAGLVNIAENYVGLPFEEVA

[3] = tested on: Pseudomonas fluorescens PHBH (para-hydroxybenzoate-3-hydroxylase); settings: read-out: KM^NADPH; reported value, natively produced PHBH; cited from earlier work
[4] = tested on: Pseudomonas aeruginosa PHBH (para-hydroxybenzoate-3-hydroxylase); settings: reported value, natively produced PHBH, cited from earlier work

Compound `O=C(O)c1ccc(O)cc1` [4-hydroxybenzoate] has a Km ([1]; read-out: KM (4-hydroxybenzoate), pH 8) of 16 ± 1 µM.
With `NC(=O)C1=CN([C@@H]2O[C@H](COP(=O)(O)OP(=O)(O)OC[C@H]3O[C@@H](n4cnc5c(N)ncnc54)[C@H](O)[C@@H]3O)[C@@H](O)[C@H]2O)C=CC1` [NADH] the “utilization as reducing equivalent” value ([2]; O2 consumption in mixture containing PobA and 4HB) was “unreactive”, the “kcat (NAD(P)H)” value ([1]; NADH varied, NADH detection (340 nm)) was 25 ± 2 s⁻¹ and the “kcat (NAD(P)H)” value ([1]; NADH varied, O2 detection (oxygraph)) was 22 ± 2 s⁻¹. For the same compound, the “substrate specificity for NADH (slightly lowered)” value ([1]; NADH, relative to NADPH) was “about 60%”.
In the case of `NC(=O)C1=CN([C@@H]2O[C@H](COP(=O)(O)OP(=O)(O)OC[C@H]3O[C@@H](n4cnc5c(N)ncnc54)[C@H](OP(=O)(O)O)[C@@H]3O)[C@@H](O)[C@H]2O)C=CC1` [NADPH], the “kcat (NAD(P)H)” value ([2]; NADPH detection (340 nm)) is reported as 50 ± 5 s⁻¹, the “kcat (NAD(P)H)” value ([2]; O2 detection (oxygraph)) is reported as 47 ± 4 s⁻¹ and the “kcat (NAD(P)H)” value ([1]; NADPH varied, NADPH detection (340 nm)) is reported as 27 ± 2 s⁻¹. For the same compound, the “kcat (NAD(P)H)” value ([1]; NADPH varied, O2 detection (oxygraph)) was 23 ± 2 s⁻¹, the “difference in substrate specificity towards NADPH, PobA and PraI” value ([1]; average, PraI compared with PobA, different combination of the reactants) was “≤ two-fold” and the Km [3] was 50 µM. The Km ([4]; read-out: KM^NADPH) was 23 µM.
In the case of `O=O` [O2, molecular oxygen], the “kcat (O2)” value ([2]; pH 8) is reported as 53 ± 5 s⁻¹, the Km ([2]; pH 8, read-out: KM (O2)) is reported as 70 ± 5 µM and the “kcat (O2)” value ([1]; pH 8) is reported as 25 ± 2 s⁻¹ and 22 ± 2 s⁻¹. The Km ([1]; pH 8, read-out: KM (O2)) was 68 µM and 54 µM and the Km ([4]; read-out: KM^oxygen) was 37 µM.
